Calls of active or inactive are those of the source. The rule behind the calls is not given here.
Tests used:
Hsp70 Ssa1p [1] = experiment: Activation of yeast Hsp70 Ssa1p ATP hydrolysis activity at 300 uM; details: Saccharomyces cerevisiae
Hsp70 Ssa1p [2] = experiment: Activation of yeast Hsp70 Ssa1p ATP hydrolysis activity at 300 uM in presence of ALLLSAPRR peptide; details: Saccharomyces cerevisiae

Activity (Hsp70 Ssa1p [1]): Active
Activity (Hsp70 Ssa1p [2]): Active
SMILES: CCOCCCN(C(C)=O)[C@@H](CC(C)C)C(=O)N[C@@H](CC(C)C)C(=O)NCCN1CCOCC1

Source: ChEMBL document CHEMBL1151928, “Identification of Hsp70 modulators through modeling of the substrate binding domain” (Bioorg Med Chem Lett, 2009)
